Experimental data: ChEMBL document CHEMBL1201862, “PubChem BioAssay data set” (2004)
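How tested: cells in 96-well plates exposed to compound for 48 hours at five concentrations. GI50: concentration for 50% inhibition of growth.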 Activity calls are given as the source filed them. Cut-off read from the data, not from the text of the source: active = GI50 up to about 1.1 µM and inactive = higher. Where a SMILES comes first, the peptide text is derived from it. [ ]: non-standard residue; d: D form. The star is where a group is joined. ξ: configuration not given here. ξPhe(4-NO2) = NC(Cc1ccc([N+](=O)[O-])cc1)C(=O)O; Boc = CC(C)(C)OC(=O)*; OBn = c1ccc(CO*)cc1

What was measured:
Experiment in all cases: DTP human tumour cell line panel, 48 h
NCI-H460 = system: NCI-H460
MDA-N = system: MDA-N
RPMI-8226 = system: RPMI-8226
OVCAR-5 = system: OVCAR-5
OVCAR-4 = system: OVCAR-4
NCI/ADR-RES = system: NCI/ADR-RES
HCT-15 = system: HCT-15
SK-MEL-5 = system: SK-MEL-5
SK-MEL-2 = system: SK-MEL-2
HCT-116 = system: HCT-116
Malme-3M = system: Malme-3M
UACC-257 = system: UACC-257
SR = system: SR
HOP-92 = system: HOP-92
IGROV-1 = system: IGROV-1
A549 = system: A549
OVCAR-3 = system: OVCAR-3
CCRF-CEM = system: CCRF-CEM
MOLT-4 = system: MOLT-4

SMILES	GI50 (NCI-H460)	GI50 (MDA-N)	GI50 (RPMI-8226)	GI50 (OVCAR-5)	GI50 (OVCAR-4)	GI50 (NCI/ADR-RES)	GI50 (HCT-15) [µM]	GI50 (SK-MEL-5)	GI50 (SK-MEL-2)	GI50 (HCT-116)	GI50 (Malme-3M)	GI50 (UACC-257)	GI50 (SR)	GI50 (HOP-92)	GI50 (IGROV-1)	GI50 (A549)	GI50 (OVCAR-3)	GI50 (CCRF-CEM)	GI50 (MOLT-4)
O=C(O)CSc1nnc2c3ccccc3c3ccccc3c2n1	31.8 µM (inactive)	73.8 µM (inactive)	32.4 µM (inactive)	> 100 µM (inactive)	45.6 µM (inactive)	> 100 µM (inactive)	44.5	45.9 µM (inactive)	> 100 µM (inactive)	38.2 µM (inactive)	30 µM (inactive)	> 100 µM (inactive)	31.9 µM (inactive)	> 100 µM (inactive)	55.6 µM (inactive)	49.5 µM (inactive)	33.3 µM (inactive)	–	–
O=C(Nc1ccccc1F)c1cc2ccc(O)cc2o/c1=N\c1cccc(C(F)(F)F)c1	3.22 µM (inactive)	3.73 µM (inactive)	2.05 µM (inactive)	26.5 µM (inactive)	2.63 µM (inactive)	3.22 µM (inactive)	3.59	1.94 µM (inactive)	4.36 µM (inactive)	2.85 µM (inactive)	2.69 µM (inactive)	4.02 µM (inactive)	3.31 µM (inactive)	–	2.08 µM (inactive)	3.18 µM (inactive)	3.77 µM (inactive)	1.92 µM (inactive)	2.94 µM (inactive)
Cc1cccc(/C=N/NC(=S)N2CCCC2)n1	0.337 µM (active)	0.417 µM (active)	–	0.132 µM (active)	0.195 µM (active)	0.166 µM (active)	0.138	0.259 µM (active)	1.01 µM (active)	0.069 µM (active)	0.0286 µM (active)	0.486 µM (active)	0.0509 µM (active)	1.65 µM (inactive)	0.822 µM (active)	0.514 µM (active)	0.0255 µM (active)	< 0.01 µM (active)	0.0687 µM (active)
CCO/C=N/NC(=O)CSc1nc2ccc(I)cc2c(=O)n1Cc1ccccc1	28.8 µM (inactive)	37.8 µM (inactive)	49.3 µM (inactive)	> 100 µM (inactive)	> 100 µM (inactive)	> 100 µM (inactive)	> 100	> 100 µM (inactive)	21.7 µM (inactive)	28.8 µM (inactive)	–	> 100 µM (inactive)	33.7 µM (inactive)	83.6 µM (inactive)	39 µM (inactive)	> 100 µM (inactive)	60 µM (inactive)	23 µM (inactive)	28.5 µM (inactive)
C[C@@]1(O)C[C@@H](N2C(=O)O[C@@H](c3ccccc3)[C@H]2c2ccccc2)[C@@H]1COCc1ccccc1	17.7 µM (inactive)	16.2 µM (inactive)	7.74 µM (inactive)	23.1 µM (inactive)	22.9 µM (inactive)	15.2 µM (inactive)	24.4	13.7 µM (inactive)	12.7 µM (inactive)	19.5 µM (inactive)	20.6 µM (inactive)	15.9 µM (inactive)	15 µM (inactive)	19 µM (inactive)	25 µM (inactive)	22.6 µM (inactive)	17.3 µM (inactive)	–	5.41 µM (inactive)
CCn1c(=O)c2c3ccc(OC(C)=O)cc3[nH]c2c2ccc(OC(C)=O)cc21	29 µM (inactive)	35.2 µM (inactive)	–	> 100 µM (inactive)	57.4 µM (inactive)	> 100 µM (inactive)	62.2	30.8 µM (inactive)	–	15.5 µM (inactive)	32.2 µM (inactive)	42.1 µM (inactive)	36.6 µM (inactive)	43.5 µM (inactive)	53.1 µM (inactive)	64.7 µM (inactive)	32 µM (inactive)	15.2 µM (inactive)	17.6 µM (inactive)
CC1C(c2ccc(F)cc2)c2cc3c(cc2OC1N1CCCC1)OCO3 (centres undefined)	–	66.4 µM (inactive)	> 10 µM (inactive)	47.5 µM (inactive)	–	43.6 µM (inactive)	34.4	37.7 µM (inactive)	89.3 µM (inactive)	30.6 µM (inactive)	–	55.1 µM (inactive)	35.2 µM (inactive)	15.5 µM (inactive)	42.2 µM (inactive)	34.3 µM (inactive)	43.7 µM (inactive)	30.8 µM (inactive)	–
S=C1/C(=N/c2ccccc2)N(c2ccccc2)/C(=N\c2cccc[n+]2Cc2ccccc2)N1c1ccccc1	18.7 µM (inactive)	11.5 µM (inactive)	17.4 µM (inactive)	15.9 µM (inactive)	–	39.9 µM (inactive)	21.4	12.8 µM (inactive)	24.3 µM (inactive)	11.1 µM (inactive)	14.4 µM (inactive)	17.3 µM (inactive)	15.3 µM (inactive)	16.6 µM (inactive)	22.5 µM (inactive)	20.9 µM (inactive)	18.5 µM (inactive)	–	8.79 µM (inactive)
c1cc(-c2ccc(-c3ccc(-c4ccc(-c5ccncc5)o4)cc3)o2)ccn1	15.2 µM (inactive)	16.7 µM (inactive)	–	24.9 µM (inactive)	14.9 µM (inactive)	31.2 µM (inactive)	15.1	13.2 µM (inactive)	–	16.1 µM (inactive)	19.8 µM (inactive)	15.8 µM (inactive)	24.1 µM (inactive)	30.5 µM (inactive)	19.1 µM (inactive)	18.4 µM (inactive)	23 µM (inactive)	5.68 µM (inactive)	6.34 µM (inactive)
O=P1(Oc2ccccc2)NCc2ncccc2O1 (centres undefined)	> 100 µM (inactive)	> 100 µM (inactive)	> 100 µM (inactive)	> 100 µM (inactive)	> 100 µM (inactive)	> 100 µM (inactive)	> 100	> 100 µM (inactive)	> 100 µM (inactive)	> 100 µM (inactive)	–	> 100 µM (inactive)	> 100 µM (inactive)	> 100 µM (inactive)	> 100 µM (inactive)	> 100 µM (inactive)	> 100 µM (inactive)	> 100 µM (inactive)	> 100 µM (inactive)
CCCCCCCCOC(=O)C12Oc3ccc(-c4ccc5c(c4O)C(=O)C4=C(O)CC(C)C(O)C4(C(=O)OCCCCCCCC)O5)c(O)c3C(=O)C1=C(O)CC(C)C2O (centres undefined)	4.66 µM (inactive)	18 µM (inactive)	–	24 µM (inactive)	19.6 µM (inactive)	30.7 µM (inactive)	25	14.7 µM (inactive)	7.87 µM (inactive)	7.11 µM (inactive)	32.4 µM (inactive)	34.8 µM (inactive)	4.26 µM (inactive)	8.45 µM (inactive)	8.67 µM (inactive)	4.79 µM (inactive)	24.2 µM (inactive)	2.05 µM (inactive)	16.3 µM (inactive)
COc1cc([C@H]2c3cc(O)c(OC)cc3C[C@]3(O)[C@@H]2CO[C@@H]3O)ccc1O	> 100 µM (inactive)	> 100 µM (inactive)	> 100 µM (inactive)	> 100 µM (inactive)	> 100 µM (inactive)	> 100 µM (inactive)	> 100	> 100 µM (inactive)	> 100 µM (inactive)	> 100 µM (inactive)	–	> 100 µM (inactive)	> 100 µM (inactive)	> 100 µM (inactive)	> 100 µM (inactive)	> 100 µM (inactive)	> 100 µM (inactive)	> 100 µM (inactive)	> 100 µM (inactive)
CC1=NN(c2cccc(Cl)c2)C2(C1=Cc1ccc(N(C)C)cc1)C(Cl)C(=O)N2c1nc2ccccc2s1 (centres undefined)	> 100 µM (inactive)	63.7 µM (inactive)	41 µM (inactive)	> 100 µM (inactive)	24.2 µM (inactive)	63.5 µM (inactive)	77.4	49.1 µM (inactive)	60.3 µM (inactive)	60 µM (inactive)	–	> 100 µM (inactive)	> 100 µM (inactive)	18.6 µM (inactive)	40.7 µM (inactive)	–	39.5 µM (inactive)	50.5 µM (inactive)	74 µM (inactive)
CCOC(=O)NN(C(=O)OCC)C(C(=O)C1=CCCCC1)N(NC(=O)OCC)C(=O)OCC	> 100 µM (inactive)	> 100 µM (inactive)	> 100 µM (inactive)	> 100 µM (inactive)	> 100 µM (inactive)	> 100 µM (inactive)	> 100	> 100 µM (inactive)	> 100 µM (inactive)	> 100 µM (inactive)	> 100 µM (inactive)	> 100 µM (inactive)	> 100 µM (inactive)	> 100 µM (inactive)	> 100 µM (inactive)	> 100 µM (inactive)	> 100 µM (inactive)	–	> 100 µM (inactive)
COc1ccc(-c2nc3cc(F)ccc3s2)cc1O	21.3 µM (inactive)	57.3 µM (inactive)	17.6 µM (inactive)	48.6 µM (inactive)	28.8 µM (inactive)	46.3 µM (inactive)	3.05	22.5 µM (inactive)	27.9 µM (inactive)	27.4 µM (inactive)	35.1 µM (inactive)	24.9 µM (inactive)	19.1 µM (inactive)	–	3.81 µM (inactive)	34.1 µM (inactive)	29.7 µM (inactive)	4.53 µM (inactive)	> 100 µM (inactive)
CC(C)(C)OC(=O)NC(Cc1ccc([N+](=O)[O-])cc1)C(=O)NCC(=O)OCc1ccccc1 (centres undefined) (Boc-[ξPhe(4-NO2)]-Gly-OBn)	21.9 µM (inactive)	19.1 µM (inactive)	21 µM (inactive)	> 100 µM (inactive)	25.9 µM (inactive)	42 µM (inactive)	19.4	19.4 µM (inactive)	–	26.5 µM (inactive)	23.8 µM (inactive)	–	31.6 µM (inactive)	34 µM (inactive)	> 100 µM (inactive)	47.4 µM (inactive)	19 µM (inactive)	13.9 µM (inactive)	15 µM (inactive)
